Laboratory results published in DBAASP.
Values after ≈ are worked out from the molar mass of the structure shown. Values belong to the compound of their own block, whether it stands above or below them.

Legend:
Test in all cases: ≥ marks a high value that may be exact or a test limit, other limits are often not marked, values filed in µg/mL are converted to µM
[1] = system: Salmonella enterica subsp. enterica serovar Pullorum ATCC 7913
[2] = system: Pseudomonas aeruginosa ATCC 27853
[3] = system: Lacticaseibacillus rhamnosus 7469
[4] = system: Streptococcus thermophilus YM-C
Streptococcus agalactiae = system: Streptococcus agalactiae
[5] = system: Staphylococcus aureus ATCC 25923
[6] = system: Salmonella enterica subsp. enterica serovar Typhimurium ATCC 14028
[7] = system: Streptococcus agalactiae CICC 10465
Escherichia coli UB1005 = system: Escherichia coli UB1005
[8] = system: Staphylococcus epidermidis ATCC 12228
[9] = system: Salmonella enterica subsp. enterica serovar Typhimurium C77-31
Escherichia coli 078 = system: Escherichia coli 078
[10] = system: Escherichia coli ATCC 25922
[11] = system: Staphylococcus aureus ATCC 29213
[12] = system: Streptococcus pyogenes M1T1 5448
[13] = system: Pseudomonas aeruginosa PAO1
Escherichia coli BL21 = system: Escherichia coli BL21
[14] = system: Staphylococcus aureus USA 300
[15] = system: Enterococcus faecalis PCM 2673
[16] = system: Candida albicans ATCC 10231
[17] = system: Pseudomonas aeruginosa ATCC 9027
Yersinia enterocolitica = system: Yersinia enterocolitica
Escherichia coli = system: Escherichia coli
Salmonella sp. = system: Salmonella sp.
[18] = system: Staphylococcus aureus ATCC 43300
[19] = system: Salmonella enterica subsp. enterica serovar Enteritidis
[20] = system: Klebsiella pneumoniae ATCC 13883
[21] = system: Staphylococcus aureus USA 300 LAC
[22] = system: Aspergillus oryzae NBRC 100959
[23] = system: Micrococcus luteus NBRC 3333
[24] = system: Staphylococcus epidermidis NBRC 12993
[25] = system: Escherichia coli NBRC 3972
[26] = system: Candida viswanathii NBRC 10321

Structure (SMILES): CC[C@H](C)[C@H](NC(=O)[C@H](CCCCN)NC(=O)[C@H](CCCCN)NC(=O)[C@@H](NC(=O)[C@@H](NC(=O)[C@H](CC(=O)O)NC(=O)[C@H](Cc1ccccc1)NC(=O)[C@H](CC(C)C)NC(=O)CN)[C@@H](C)CC)[C@@H](C)CC)C(=O)N[C@@H](C)C(=O)N[C@@H](C)C(=O)N[C@@H](CO)C(=O)N[C@@H](Cc1ccccc1)C(N)=O [GLFDIIKKIAASF]
- MIC [5]: 22.5 µM (≈ 32 µg/mL)
- MIC [15]: 22.5 µM (≈ 32 µg/mL)
- MIC [16]: 22.5 µM (≈ 32 µg/mL)
- MIC [17]: 45 µM (≈ 64 µg/mL)
- MIC [10]: 11.2 µM (≈ 16 µg/mL)

Structure (SMILES): CC[C@H](C)[C@H](NC(=O)[C@H](CC(C)C)NC(=O)[C@@H](NC(=O)[C@@H](N)CC(=O)O)[C@@H](C)CC)C(=O)N[C@H](C(=O)N[C@H](C(=O)NCC(=O)NCC(=O)N[C@@H](CCCN=C(N)N)C(=O)N[C@@H](CCCN=C(N)N)C(=O)N[C@@H](CCCN=C(N)N)C(=O)N[C@@H](CCCN=C(N)N)C(=O)N[C@@H](CCCN=C(N)N)C(=O)N[C@@H](CCCN=C(N)N)C(N)=O)C(C)C)[C@@H](C)CC [DILIIVGGRRRRRR]
- MIC [1]: 8 µM (≈ 13.9 µg/mL)
- MIC [2]: > 64 µM
- MIC [3]: ≥ 64 µM
- MIC [4]: ≥ 64 µM
- MIC (Streptococcus agalactiae): 5.66 µM (≈ 9.82 µg/mL)
- MIC [5]: > 64 µM
- MIC [6]: > 64 µM
- MIC [7]: 2 µM (≈ 3.47 µg/mL)
- MIC (Escherichia coli UB1005): 16 µM (≈ 27.8 µg/mL)
- MIC [8]: 2 µM (≈ 3.47 µg/mL)
- MIC [9]: ≥ 64 µM
- MIC (Escherichia coli 078): ≥ 32 µM
- MIC [10]: 16 µM (≈ 27.8 µg/mL)
- MIC [11]: 2 µM (≈ 3.47 µg/mL)

Structure (SMILES): CC[C@H](C)[C@H](NC(=O)[C@H](CCCN=C(N)N)NC(=O)CNC(=O)[C@@H](NC(=O)[C@H](CCCCN)NC(=O)[C@H](CCCN=C(N)N)NC(=O)[C@@H](NC(=O)[C@H](Cc1ccc(O)cc1)NC(=O)[C@H](CCCN=C(N)N)NC(=O)[C@H](CCCN=C(N)N)NC(=O)[C@H](CC(C)C)NC(=O)[C@H](CCC(=O)O)NC(=O)[C@H](CCCCN)NC(=O)[C@H](C)NC(=O)[C@@H](NC(=O)[C@H](CCCN=C(N)N)NC(=O)[C@H](CC(N)=O)NC(=O)[C@@H](NC(=O)CNC(=O)[C@H](C)N)[C@@H](C)O)[C@@H](C)CC)[C@@H](C)CC)C(C)C)C(=O)N[C@@H](C)C(=O)N[C@@H](CCCN=C(N)N)C(=O)N[C@@H](CCCCN)C(=O)N[C@@H](CCCCN)C(=O)N[C@@H](Cc1c[nH]c2ccccc12)C(=O)O [AGTNRIAKELRRYIRKVGRIARKKW]
- MIC [12]: 1 µM (≈ 3.04 µg/mL)
- MIC [13]: 16 µM (≈ 48.7 µg/mL)
- MIC (Escherichia coli BL21): 1 µM (≈ 3.04 µg/mL)

Structure (SMILES): CC[C@H](C)[C@H](NC(=O)[C@H](CCCCN)NC(=O)[C@H](CCCN=C(N)N)NC(=O)[C@@H](N)CC(C)C)C(=O)N[C@@H](Cc1c[nH]c2ccccc12)C(=O)N[C@@H](Cc1c[nH]c2ccccc12)C(=O)N[C@@H](Cc1c[nH]c2ccccc12)C(=O)N[C@@H](Cc1c[nH]c2ccccc12)C(N)=O [LRKIWWWW]
- MIC [20]: 8.8 µM (≈ 11.2 µg/mL)
- MIC [21]: 4.38 µM (≈ 5.58 µg/mL)
- MIC [10]: 12.5 µM (≈ 15.9 µg/mL)

More lines, now with the values ahead:

- MIC [1]: 8 µM (≈ 15.5 µg/mL)
- MIC [2]: 4 µM (≈ 7.74 µg/mL)
- MIC [3]: ≥ 32 µM
- MIC [4]: ≥ 64 µM
- MIC (Streptococcus agalactiae): 5.66 µM (≈ 10.9 µg/mL)
- MIC [5]: 8 µM (≈ 15.5 µg/mL)
- MIC [6]: 4 µM (≈ 7.74 µg/mL)
- MIC [7]: 2 µM (≈ 3.87 µg/mL)
- MIC (Escherichia coli UB1005): 8 µM (≈ 15.5 µg/mL)
- MIC [8]: 4 µM (≈ 7.74 µg/mL)
- MIC [9]: 4 µM (≈ 7.74 µg/mL)
- MIC (Escherichia coli 078): 4 µM (≈ 7.74 µg/mL)
- MIC [10]: 4 µM (≈ 7.74 µg/mL)
- MIC [11]: 4 µM (≈ 7.74 µg/mL)
Structure (SMILES): CC[C@H](C)[C@H](NC(=O)[C@H](CC(C)C)NC(=O)[C@@H](NC(=O)[C@@H](N)CC(=O)O)[C@@H](C)CC)C(=O)N[C@H](C(=O)N[C@H](C(=O)NCC(=O)NCC(=O)N[C@@H](CCCCN)C(=O)N[C@@H](CCC(N)=O)C(=O)N[C@@H](CCCN=C(N)N)C(=O)N[C@@H](CCCCN)C(=O)N[C@@H](CCCCN)C(=O)N[C@@H](CCCN=C(N)N)C(=O)N[C@@H](CCCN=C(N)N)C(=O)N[C@@H](CCCN=C(N)N)C(N)=O)C(C)C)[C@@H](C)CC [DILIIVGGKQRKKRRR]

- MIC [12]: 2 µM (≈ 6.13 µg/mL)
- MIC [13]: 64 µM (≈ 196 µg/mL)
- MIC (Escherichia coli BL21): 16 µM (≈ 49 µg/mL)
- MIC [14]: ≥ 128 µM
Structure (SMILES): CC[C@H](C)[C@H](NC(=O)[C@H](Cc1ccccc1)NC(=O)[C@H](C)NC(=O)[C@H](CCCCN)NC(=O)[C@H](CCCCN)NC(=O)CNC(=O)[C@H](CCCN=C(N)N)NC(=O)[C@H](CCCCN)NC(=O)[C@H](CCCN=C(N)N)NC(=O)[C@H](CC(C)C)NC(=O)[C@H](CCC(=O)O)NC(=O)[C@H](CCC(=O)O)NC(=O)[C@H](CC(C)C)NC(=O)[C@H](CC(C)C)NC(=O)[C@H](Cc1ccc(O)cc1)NC(=O)[C@H](CCCCN)NC(=O)[C@@H](NC(=O)[C@H](CC(C)C)NC(=O)[C@H](C)NC(=O)[C@H](CCC(N)=O)NC(=O)[C@H](CCCN=C(N)N)NC(=O)CNC(=O)[C@@H](N)Cc1c[nH]c2ccccc12)[C@@H](C)O)C(=O)N[C@@H](C)C(=O)N[C@@H](Cc1c[nH]c2ccccc12)C(=O)O [WGRQALTKYLLEELRKRGKKAFIAW]

- MIC [2]: > 50 µM
- MIC (Yersinia enterocolitica): ≥ 50 µM
- MIC (Escherichia coli): > 50 µM
- MIC (Salmonella sp.): ≥ 50 µM
- MIC [18]: > 50 µM
- MIC [19]: ≥ 50 µM
- MIC [10]: > 50 µM
- MIC [11]: > 50 µM
Structure (SMILES): CC[C@H](C)[C@H](NC(=O)[C@H](CCC(N)=O)NC(=O)[C@@H](N)CCCN=C(N)N)C(=O)N[C@@H](CCCN=C(N)N)C(=O)N[C@@H](Cc1c[nH]c2ccccc12)C(N)=O [RQIRW]

- MIC [20]: 25 µM (≈ 31.8 µg/mL)
- MIC [21]: 4.38 µM (≈ 5.58 µg/mL)
- MIC [10]: 17.7 µM (≈ 22.5 µg/mL)
Structure (SMILES): CC[C@H](C)[C@H](NC(=O)[C@H](CCCCN)NC(=O)[C@H](CCCN=C(N)N)NC(=O)[C@H](CC(C)C)NC(=O)[C@@H](N)Cc1c[nH]c2ccccc12)C(=O)N[C@@H](Cc1c[nH]c2ccccc12)C(=O)N[C@@H](Cc1c[nH]c2ccccc12)C(=O)N[C@@H](Cc1c[nH]c2ccccc12)C(N)=O [WLRKIWWW]

- MIC [22]: 12.9 µM (≈ 25 µg/mL)
- MIC [23]: 25.7 µM (≈ 50 µg/mL)
- MIC [24]: 12.9 µM (≈ 25 µg/mL)
- MIC [25]: ≥ 411 µM
- MIC [26]: 25.7 µM (≈ 50 µg/mL)
Structure (SMILES): CC[C@H](C)[C@H](NC(=O)[C@H](CCCCN)NC(=O)[C@@H](N)CCCN=C(N)N)C(=O)N[C@@H](CCCCN)C(=O)N[C@@H](CCCN=C(N)N)C(=O)N[C@@H](Cc1ccc(O)cc1)C(=O)N[C@@H](CC(C)C)C(=O)N[C@@H](CCCN=C(N)N)C(=O)N[C@@H](CCCN=C(N)N)C(=O)N[C@@H](CCSC)C(=O)N[C@H](C(=O)N[C@H](C(=O)N[C@H](C(=O)N[C@@H](Cc1c[nH]c2ccccc12)C(=O)O)[C@@H](C)CC)[C@@H](C)CC)[C@@H](C)CC [RKIKRYLRRMIIIW]
